According to publication PMC7553777, “Structural basis for the reaction cycle of DASS dicarboxylate transporters” (eLife, 2020):
Like-named read-outs stand apart in the source and are kept apart here. Blank lines part the entries; values can stand above or below the compound they belong to.

Assays:
[1] = target: T1, LaINDY (Lactobacillus acidophilus, UniProt Q5FKK5); assay: thermostability, SEC peak height after […] h at […] °C; format: binding
T1 construct: gene LBA0912

[2] = target: T1, LaINDY; assay: whole-cell radiolabelled uptake and exchange in E. coli BL21(DE3); format: cell-based; conditions: 1 μM 3H-succinate, labelled compound, pH 7.5, 30 °C, 10 mM NaCl
[3] = target: LaINDY, succinate/dicarboxylate transporter from Lactobacillus acidophilus (Lactobacillus acidophilus); assay: SEC-MALS; Shodex KW803 column, buffer with 0.05% DDM, three angle static light scattering, refractive index and UV detectors; detergent-purified LaINDY
[4] = target: LaINDY, succinate/dicarboxylate transporter from Lactobacillus acidophilus (Lactobacillus acidophilus); assay: cryo-EM structure
[5] = target: LaINDY, succinate/dicarboxylate transporter from Lactobacillus acidophilus (Lactobacillus acidophilus); assay: crystal structure

T1 sequence (Q5FKK5 1-488 limits assumed): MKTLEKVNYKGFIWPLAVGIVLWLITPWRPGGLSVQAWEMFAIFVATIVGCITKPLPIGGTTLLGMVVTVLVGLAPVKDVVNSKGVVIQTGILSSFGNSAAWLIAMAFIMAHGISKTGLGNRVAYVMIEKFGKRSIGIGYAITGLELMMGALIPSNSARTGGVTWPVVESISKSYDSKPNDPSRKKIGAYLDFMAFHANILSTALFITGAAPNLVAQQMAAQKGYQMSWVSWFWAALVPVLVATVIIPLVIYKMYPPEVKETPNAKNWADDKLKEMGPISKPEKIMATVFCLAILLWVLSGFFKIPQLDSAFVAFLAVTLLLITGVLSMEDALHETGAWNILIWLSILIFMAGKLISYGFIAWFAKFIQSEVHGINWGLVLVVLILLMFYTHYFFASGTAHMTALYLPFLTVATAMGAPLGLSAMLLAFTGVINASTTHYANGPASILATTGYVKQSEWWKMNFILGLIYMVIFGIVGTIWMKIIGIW

Compound: O=C(O)CC(O)C(=O)O (racemic) [malate]
thermostability, SEC peak height after 2 h at 42 °C [1]: Following identification of malate and αKG as stabilizers

Compound: O=C(O)CCC(=O)O [succinate]
whole-cell radiolabelled uptake and exchange in E. coli BL21(DE3) [2]: E. coli transformed with LaINDY accumulated radioactive succinate from an external solution

Compound: O=C(O)CCC(=O)C(=O)O [αKG]
thermostability, SEC peak height after 2 h at 42 °C ([1]; pH 8.0, 150 mM NaCl, 0.15% DM, 100 mM compound as printed): Following identification of malate and αKG as stabilizers

stoichiometry N [3]: 2
stoichiometry N [4]: 2
stoichiometry N [5]: 2
Compound: LaINDY, succinate/dicarboxylate transporter from Lactobacillus acidophilus (natural protein)
